Test results taken from patent US20200038513A1, “MODULATORS OF FAK PROTEOLYSIS AND ASSOCIATED METHODS OF USE” (ARVINAS OPERATIONS, INC., priority 2018, published 2020).
Where two headings read alike, the source gives them in different places.

Test: Pharmacokinetics of intraperitoneal or intravenous injection in CD1 mice
Assay type: in vivo
Conditions: CD1 mice plasma; for concentration at 0.25 h / concentration at 0.5 h / concentration at 1 h / concentration at 2 h / concentration at 4 h / concentration at 0.033 h / concentration at 0.083 h: male, CD1, mouse, plasma
Method: The pharmacokinetics of exemplary compounds 103, 107, 100, 101, and 102 was examined for intraperitoneal and intravenous administration. The desired serial concentrations of working solutions were achieved by diluting stock solution (1 mg/mL in DMSO) of analyte with methanol. In particular, 20 μL of working solutions (1, 2, 5, 10, 50, 100, 500, 1000, 2000 ng/mL) were added to 20 μL of the blank CD1 mice plasma to achieve calibration standards of 1-2000 ng/mL (1, 2, 5, 10, 50, 100, 500, 1000, 2000 ng/mL) in a total volume of 40 μL. Dose of IV and IP were diluted by 1000 fold and 10000 with methanol, 20 μL of the diluted dose solutions were added to 20 μL of the blank CD1 mice plasma to achieve dose samples. Next, 40 μL standards and 40 μL dose samples were added to 20 μL of IS (100 ng/mL) and 200 μL of acetonitrile for precipitating protein respectively. Then the samples were vortexed for 30 seconds. After centrifugation at 4 degree Celsius, 4000 rpm for 15 minutes, the supernatant was diluted 3 times with water. 10 μL of the diluted supernatant was injected into the LC/MS/MS system for quantitative analysis.
Exemplary compounds 103, 107, 100, 101, and 102 were administered intravenously (5 second injection of 10% HP-b-CD and 40 mM sodium acetate and 40 mM NaCl in water, pH4.5) or intraperitoneally (5% EtOH and 5% Solutol HS15 in D5W(ESD-2)) to 6-8 week old male CD1 mice (3 mice per treatment group for a total of 12 mice) at the time points indicated below in Table 7. The mice had free access to food and water.
Dorsal metatarsal vein samples (30 μL), except that the final sample was acquired via a heart puncture, were taken from the mice at the same the administration time points as shown in Table 7.

[1] = iv, 1 mg/kg, IV 1.0 mg/kg, read-out: Conc. (ng/mL) Mouse 1
[2] = iv, 1 mg/kg, IV 1.0 mg/kg, read-out: Conc. (ng/mL) Mouse 2
[3] = iv, 1 mg/kg, IV 1.0 mg/kg, read-out: Conc. (ng/mL) Mouse 3
[4] = iv, 1 mg/kg, IV 1.0 mg/kg, read-out: Mean

Q: For CN(c1cccc(CNc2nc(Nc3ccc(OCCCOCCC(=O)NCCOc4cccc5c4C(=O)N(C4CCC(=O)NC4=O)C5=O)cc3)ncc2C(F)(F)F)c1)S(C)(=O)=O (centres unmarked) [Compound 107], which “Conc. (ng/mL) Mouse 1” value (IP 10 mg/kg, 8 h) is on record?
A: Its value is “BLOQ”.

Q: What about the “Conc. (ng/mL) Mouse 2” value (IP 10 mg/kg, 8 h) of the same molecule?
A: The value was “BLOQ”.

Q: What about the “Conc. (ng/mL) Mouse 3” value (IP 10 mg/kg, 8 h) of the same molecule?
A: The value was “BLOQ”.

Q: And the “Conc. (ng/mL) Mouse 1” value (IP 10 mg/kg, 24 h)?
A: The value was “BLOQ”.

Q: What about the “Conc. (ng/mL) Mouse 2” value (IP 10 mg/kg, 24 h) of the same molecule?
A: Its value is “BLOQ”.

Q: And the “Conc. (ng/mL) Mouse 3” value (IP 10 mg/kg, 24 h)?
A: Its value is “BLOQ”.

Q: What about the “Conc. (ng/mL) Mouse 1” value (IV 1.0 mg/kg, 0.25 h) of the same molecule?
A: Its value is “BLOQ”.

Q: What about the “Conc. (ng/mL) Mouse 1” value (IV 1.0 mg/kg, 0.5 h) of the same molecule?
A: The value was “BLOQ”.

Q: What about the “Conc. (ng/mL) Mouse 2” value (IV 1.0 mg/kg, 0.5 h) of the same molecule?
A: Its value is “BLOQ”.

Q: And the “Conc. (ng/mL) Mouse 3” value (IV 1.0 mg/kg, 0.5 h)?
A: The value was “BLOQ”.

Q: What about the “Conc. (ng/mL) Mouse 1” value (IV 1.0 mg/kg, 1 h) of the same molecule?
A: Its value is “BLOQ”.

Q: And the “Conc. (ng/mL) Mouse 2” value (IV 1.0 mg/kg, 1 h)?
A: Its value is “BLOQ”.

Q: What about the “Conc. (ng/mL) Mouse 3” value (IV 1.0 mg/kg, 1 h) of the same molecule?
A: Its value is “BLOQ”.

Q: What about the “Conc. (ng/mL) Mouse 1” value (IV 1.0 mg/kg, 2 h) of the same molecule?
A: Its value is “BLOQ”.

Q: And the “Conc. (ng/mL) Mouse 2” value (IV 1.0 mg/kg, 2 h)?
A: The value was “BLOQ”.

Q: What about the “Conc. (ng/mL) Mouse 3” value (IV 1.0 mg/kg, 2 h) of the same molecule?
A: The value was “BLOQ”.

Q: And the “Conc. (ng/mL) Mouse 1” value (IV 1.0 mg/kg, 4 h)?
A: Its value is “BLOQ”.

Q: And the “Conc. (ng/mL) Mouse 2” value (IV 1.0 mg/kg, 4 h)?
A: The value was “BLOQ”.

Q: And the “Conc. (ng/mL) Mouse 3” value (IV 1.0 mg/kg, 4 h)?
A: Its value is “BLOQ”.

Q: What about the “Conc. (ng/mL) Mouse 1” value (IV 1.0 mg/kg, 8 h) of the same molecule?
A: Its value is “BLOQ”.

Q: And the “Conc. (ng/mL) Mouse 2” value (IV 1.0 mg/kg, 8 h)?
A: The value was “BLOQ”.

Q: And the “Conc. (ng/mL) Mouse 3” value (IV 1.0 mg/kg, 8 h)?
A: Its value is “BLOQ”.

Q: What about the “Conc. (ng/mL) Mouse 1” value (IV 1.0 mg/kg, 24 h) of the same molecule?
A: The value was “BLOQ”.

Q: And the “Conc. (ng/mL) Mouse 2” value (IV 1.0 mg/kg, 24 h)?
A: Its value is “BLOQ”.

Q: What about the “Conc. (ng/mL) Mouse 3” value (IV 1.0 mg/kg, 24 h) of the same molecule?
A: Its value is “BLOQ”.

Q: What about the concentration at 0.25 h (ip, 10 mg/kg, IP 10 mg/kg, 0.25 h, read-out: Conc. (ng/mL) Mouse 1) of the same molecule?
A: The concentration at 0.25 h was 44.8 ng/mL.

Q: And the concentration at 0.25 h (ip, 10 mg/kg, IP 10 mg/kg, 0.25 h, read-out: Conc. (ng/mL) Mouse 2)?
A: Its concentration at 0.25 h is 42.6 ng/mL.

Q: What about the concentration at 0.25 h (ip, 10 mg/kg, IP 10 mg/kg, 0.25 h, read-out: Conc. (ng/mL) Mouse 3) of the same molecule?
A: The concentration at 0.25 h was 111 ng/mL.

Q: What about the concentration at 0.25 h (ip, 10 mg/kg, IP 10 mg/kg, 0.25 h, read-out: Mean) of the same molecule?
A: The concentration at 0.25 h was 66 ng/mL.

Q: And the concentration at 0.5 h (ip, 10 mg/kg, IP 10 mg/kg, 0.5 h, read-out: Conc. (ng/mL) Mouse 1)?
A: The concentration at 0.5 h was 68.4 ng/mL.

Q: And the concentration at 0.5 h (ip, 10 mg/kg, IP 10 mg/kg, 0.5 h, read-out: Conc. (ng/mL) Mouse 2)?
A: The concentration at 0.5 h was 41.9 ng/mL.

Q: What about the concentration at 0.5 h (ip, 10 mg/kg, IP 10 mg/kg, 0.5 h, read-out: Conc. (ng/mL) Mouse 3) of the same molecule?
A: The concentration at 0.5 h was 69.3 ng/mL.

Q: And the concentration at 0.5 h (ip, 10 mg/kg, IP 10 mg/kg, 0.5 h, read-out: Mean)?
A: Its concentration at 0.5 h is 59.9 ng/mL.

Q: And the concentration at 1 h (ip, 10 mg/kg, IP 10 mg/kg, 1 h, read-out: Conc. (ng/mL) Mouse 1)?
A: The concentration at 1 h was 64.7 ng/mL.

Q: What about the concentration at 1 h (ip, 10 mg/kg, IP 10 mg/kg, 1 h, read-out: Conc. (ng/mL) Mouse 2) of the same molecule?
A: The concentration at 1 h was 54.2 ng/mL.

Q: And the concentration at 1 h (ip, 10 mg/kg, IP 10 mg/kg, 1 h, read-out: Conc. (ng/mL) Mouse 3)?
A: Its concentration at 1 h is 199 ng/mL.

Q: And the concentration at 1 h (ip, 10 mg/kg, IP 10 mg/kg, 1 h, read-out: Mean)?
A: Its concentration at 1 h is 106 ng/mL.

Q: What about the concentration at 2 h (ip, 10 mg/kg, IP 10 mg/kg, 2 h, read-out: Conc. (ng/mL) Mouse 1) of the same molecule?
A: Its concentration at 2 h is 53.2 ng/mL.

Q: What about the concentration at 2 h (ip, 10 mg/kg, IP 10 mg/kg, 2 h, read-out: Conc. (ng/mL) Mouse 2) of the same molecule?
A: The concentration at 2 h was 38.1 ng/mL.

Q: What about the concentration at 2 h (ip, 10 mg/kg, IP 10 mg/kg, 2 h, read-out: Conc. (ng/mL) Mouse 3) of the same molecule?
A: Its concentration at 2 h is 59.8 ng/mL.

Q: What about the concentration at 2 h (ip, 10 mg/kg, IP 10 mg/kg, 2 h, read-out: Mean) of the same molecule?
A: Its concentration at 2 h is 50.4 ng/mL.

Q: And the concentration at 4 h (ip, 10 mg/kg, IP 10 mg/kg, 4 h, read-out: Conc. (ng/mL) Mouse 1)?
A: Its concentration at 4 h is 4.11 ng/mL.

Q: And the concentration at 4 h (ip, 10 mg/kg, IP 10 mg/kg, 4 h, read-out: Conc. (ng/mL) Mouse 2)?
A: Its concentration at 4 h is 14.9 ng/mL.

Q: And the concentration at 4 h (ip, 10 mg/kg, IP 10 mg/kg, 4 h, read-out: Conc. (ng/mL) Mouse 3)?
A: Its concentration at 4 h is 22.2 ng/mL.

Q: What about the concentration at 4 h (ip, 10 mg/kg, IP 10 mg/kg, 4 h, read-out: Mean) of the same molecule?
A: The concentration at 4 h was 13.7 ng/mL.

Q: What about the concentration at 0.033 h [1] of the same molecule?
A: Its concentration at 0.033 h is 31.4 ng/mL.

Q: What about the concentration at 0.033 h [2] of the same molecule?
A: The concentration at 0.033 h was 31.6 ng/mL.

Q: And the concentration at 0.033 h [3]?
A: The concentration at 0.033 h was 34.3 ng/mL.

Q: What about the concentration at 0.033 h [4] of the same molecule?
A: Its concentration at 0.033 h is 32.4 ng/mL.

Q: What about the concentration at 0.083 h [1] of the same molecule?
A: Its concentration at 0.083 h is 8.44 ng/mL.

Q: What about the concentration at 0.083 h [2] of the same molecule?
A: Its concentration at 0.083 h is 9.65 ng/mL.

Q: What about the concentration at 0.083 h [3] of the same molecule?
A: Its concentration at 0.083 h is 9.61 ng/mL.

Q: What about the concentration at 0.083 h [4] of the same molecule?
A: Its concentration at 0.083 h is 9.23 ng/mL.

Q: What about the concentration at 0.25 h (iv, 1 mg/kg, IV 1.0 mg/kg, 0.25 h, read-out: Conc. (ng/mL) Mouse 2) of the same molecule?
A: The concentration at 0.25 h was 2.25 ng/mL.

Q: What about the concentration at 0.25 h (iv, 1 mg/kg, IV 1.0 mg/kg, 0.25 h, read-out: Conc. (ng/mL) Mouse 3) of the same molecule?
A: The concentration at 0.25 h was 1.73 ng/mL.

Q: And the concentration at 0.25 h (iv, 1 mg/kg, IV 1.0 mg/kg, 0.25 h, read-out: Mean)?
A: The concentration at 0.25 h was 1.99 ng/mL.
